In patent US10913727B2, “Modulators of the integrated stress pathway” (Calico Life Sciences LLC, priority 2016, dated 2021):

System: HEK293T cells carrying the ATF4 luciferase reporter
Assay: ATF4-Luc assay, in vitro model of Vanishing Cell White Matter Disease (VWMD)
Assay type: cell-based
Details: Homo sapiens, HEK-293T, 1 μg/mL tunicamycin, 7 hours, One Glo luminescence
Summary of the method: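 Reporter cells were stably generated by retroviral transduction and puromycin selection, then seeded at 30,000 cells/well. Next day, cells received 1 μg/mL tunicamycin with 200 nM test compound for 7 h, and luciferase luminescence was read with a one-step reagent. Values reported as EC50.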

Compound	EC50
O=C(COc1ccc(Cl)c(F)c1)NC12CC(NC(=O)c3cnccn3)(C1)C2 [Compound 175, N-{3-[2-(4-chloro-3-fluorophenoxy)acetamido]bicyclo[1.1.1]pentan-1-yl}pyrazine-2-carboxamide]	250 to 1000 nM
COc1cc(F)ccc1C(=O)NC12CC(NC(=O)COc3ccc(Cl)c(F)c3)(C1)C2 [Compound 527, N-{3-[2-(4-chloro-3-fluorophenoxy)acetamido]bicyclo[1.1.1]pentan-1-yl}-4-fluoro-2-methoxybenzamide]	1000 to 2000 nM
O=C(COc1ccc(Cl)c(F)c1)NC12CC(NC(=O)c3onc4c3CCCC4)(C1)C2 [Compound 854, N-{3-[2-(4-chloro-3-fluorophenoxy)acetamido]bicyclo[1.1.1]pentan-1-yl}-4,5,6,7-tetrahydro-2,1-benzoxazole-3-carboxamide]	> 2000 nM
O=C(COc1ccc(Cl)c(F)c1)NC12CC(Nc3cnc(C(F)F)cn3)(C1)C2 [Compound 649, 2-(4-chloro-3-fluorophenoxy)-N-(3-{[5-(difluoromethyl)pyrazin-2-yl]amino}bicyclo[1.1.1]pentan-1-yl)acetamide]	1000 to 2000 nM
O=C(COc1ccc(Cl)c(F)c1)NC12CC(NC(=O)c3ccc(/C=C/C4CC4)cn3)(C1)C2 [Compound 283, N-{3-[2-(4-chloro-3-fluorophenoxy)acetamido]bicyclo[1.1.1]pentan-1-yl}-5-[(E)-2-cyclopropylethenyl]pyridine-2-carboxamide]	< 50 nM
O=C(COc1ccc(Cl)c(F)c1)NC12CC(NC(=O)c3ccc(OCCO)nc3)(C1)C2 [Compound 161, N-{3-[2-(4-chloro-3-fluorophenoxy)acetamido]bicyclo[1.1.1]pentan-1-yl}-6-(2-hydroxyethoxy)pyridine-3-carboxamide]	1000 to 2000 nM
COc1cccc(C(=O)NC23CC(NC(=O)COc4ccc(Cl)c(F)c4)(C2)C3)n1 [Compound 829, N-{3-[2-(4-chloro-3-fluorophenoxy)acetamido]bicyclo[1.1.1]pentan-1-yl}-6-methoxypyridine-2-carboxamide]	50 to 250 nM
CC(C)(C)OC(=O)NCc1ccnc(C(=O)NC23CC(NC(=O)COc4ccc(Cl)c(Cl)c4)(C2)C3)c1 [Compound 580, tert-butyl {[2-({3-[2-(3,4-dichlorophenoxy)acetamido]bicyclo[1.1.1]pentan-1-yl}carbamoyl)pyridin-4-yl]methyl}carbamate]	> 2000 nM
CN(C(=O)COc1ccc(Cl)c(F)c1)C12CC(N(C)C(=O)c3cnc(C(F)F)cn3)(C1)C2 [Compound 362, N-(3-{[(4-chloro-3-fluorophenoxy)acetyl](methyl)amino}bicyclo[1.1.1]pentan-1-yl)-5-(difluoromethyl)-N-methylpyrazine-2-carboxamide]	> 2000 nM
NS(=O)(=O)c1cccc(C(=O)NC23CC(NC(=O)COc4ccc(Cl)c(F)c4)(C2)C3)c1 [Compound 768, N-{3-[2-(4-chloro-3-fluorophenoxy)acetamido]bicyclo[1.1.1]pentan-1-yl}-3-sulfamoylbenzamide]	> 2000 nM
O=C(COc1ccc(F)c(F)c1)NC12CC(NC(=O)c3ccc(CCC4CC4)cn3)(C1)C2 [Compound 291, 5-(2-cyclopropylethyl)-N-{3-[2-(3,4-difluorophenoxy)acetamido]bicyclo[1.1.1]pentan-1-yl}pyridine-2-carboxamide]	50 to 250 nM
O=C(COc1ccc(Cl)c(F)c1)NC12CC(NC(=O)c3ccc4ccccc4n3)(C1)C2 [Compound 586, N-{3-[2-(4-chloro-3-fluorophenoxy)acetamido]bicyclo[1.1.1]pentan-1-yl}quinoline-2-carboxamide]	< 50 nM
CSc1ccccc1C(=O)NC12CC(NC(=O)COc3ccc(Cl)c(F)c3)(C1)C2 [Compound 866, N-{3-[2-(4-chloro-3-fluorophenoxy)acetamido]bicyclo[1.1.1]pentan-1-yl}-2-(methylsulfanyl)benzamide]	> 2000 nM
O=C(COc1ccc(Cl)c(F)c1)NC12CC(NC(=O)c3ncccn3)(C1)C2 [Compound 793, N-{3-[2-(4-chloro-3-fluorophenoxy)acetamido]bicyclo[1.1.1]pentan-1-yl}pyrimidine-2-carboxamide]	250 to 1000 nM
Cc1cncc(C(=O)NC23CC(NC(=O)COc4ccc(Cl)c(Cl)c4)(C2)C3)n1 [Compound 737, N-{3-[2-(3,4-dichlorophenoxy)acetamido]bicyclo[1.1.1]pentan-1-yl}-6-methylpyrazine-2-carboxamide]	250 to 1000 nM
O=C(COc1ccc(Cl)c(Cl)c1)NC12CCC(NC(=O)c3cnc(C(F)F)cn3)(CC1)C[C@@H]2O [Compound 703, N-{(3S)-4-[2-(3,4-dichlorophenoxy)acetamido]-3-hydroxybicyclo[2.2.2]octan-1-yl}-5-(difluoromethyl)pyrazine-2-carboxamide]	< 50 nM
O=C(COc1ccc(Cl)c(F)c1)NC12CC(NC(=O)c3cnc4ccccc4n3)(C1)C2 [Compound 482, N-{3-[2-(4-chloro-3-fluorophenoxy)acetamido]bicyclo[1.1.1]pentan-1-yl}quinoxaline-2-carboxamide]	< 50 nM

Compound	EC50
O=C(COc1ccc(Cl)c(Cl)c1)NC12CC(NC(=O)c3cccc(CO)n3)(C1)C2 [Compound 165, N-{3-[2-(3,4-dichlorophenoxy)acetamido]bicyclo[1.1.1]pentan-1-yl}-6-(hydroxymethyl)pyridine-2-carboxamide]	> 2000 nM
O=C(COc1ccc(Cl)c(F)c1)NC12CCC(NC(=O)c3cc(C(F)F)no3)(CC1)CC2O (stereo not drawn) [Compound 632, N-{4-[2-(4-chloro-3-fluorophenoxy)acetamido]-3-hydroxybicyclo[2.2.2]octan-1-yl}-3-(difluoromethyl)-1,2-oxazole-5-carboxamide]	< 50 nM
O=C(COc1ccc(Cl)c(F)c1)NC12CC(Nc3ccn4nccc4n3)(C1)C2 [Compound 609, 2-(4-chloro-3-fluorophenoxy)-N-{3-[(pyrazolo[1,5-a]pyrimidin-5-yl)amino]bicyclo[1.1.1]pentan-1-yl}acetamide]	1000 to 2000 nM
Cc1ccn2cc(C(=O)NC34CC(NC(=O)COc5ccc(Cl)c(F)c5)(C3)C4)nc2c1 [Compound 808, N-{3-[2-(4-chloro-3-fluorophenoxy)acetamido]bicyclo[1.1.1]pentan-1-yl}-7-methylimidazo[1,2-a]pyridine-2-carboxamide]	> 2000 nM
Cc1cnc(C(=O)NC23CCC(NC(=O)COc4ccc(Cl)c(F)c4)(CC2)C(O)C3)c(C)n1 (stereo not drawn) [Compound 286, N-{4-[2-(4-chloro-3-fluorophenoxy)acetamido]-3-hydroxybicyclo[2.2.2]octan-1-yl}-3,5-dimethylpyrazine-2-carboxamide]	250 to 1000 nM
O=C(COc1ccc(Cl)c(F)c1)NC12CC(NC(=O)c3cc(OC(F)F)ccn3)(C1)C2 [Compound 300, N-{3-[2-(4-chloro-3-fluorophenoxy)acetamido]bicyclo[1.1.1]pentan-1-yl}-4-(difluoromethoxy)pyridine-2-carboxamide]	250 to 1000 nM
CCc1noc(C(=O)NC23CCC(NC(=O)COc4ccc(Cl)c(F)c4)(CC2)C(O)C3)n1 (stereo not drawn) [Compound 567, N-{4-[2-(4-chloro-3-fluorophenoxy)acetamido]-3-hydroxybicyclo[2.2.2]octan-1-yl}-3-ethyl-1,2,4-oxadiazole-5-carboxamide]	50 to 250 nM
Cn1nc(-c2ccccc2)cc1C(=O)NC12CC(NC(=O)COc3ccc(Cl)c(F)c3)(C1)C2 [Compound 340, N-{3-[2-(4-chloro-3-fluorophenoxy)acetamido]bicyclo[1.1.1]pentan-1-yl}-1-methyl-3-phenyl-1H-pyrazole-5-carboxamide]	< 50 nM
Cn1nc(C(F)F)cc1C(=O)NC12CCC(NC(=O)COc3ccc(Cl)c(F)c3)(CC1)C(O)C2 (stereo not drawn) [Compound 437, N-{4-[2-(4-chloro-3-fluorophenoxy)acetamido]-3-hydroxybicyclo[2.2.2]octan-1-yl}-3-(difluoromethyl)-1-methyl-1H-pyrazole-5-carboxamide]	< 50 nM
O=C(COc1ccc(Cl)c(F)c1)NC12CC(NC(=O)c3cccc4c3OCO4)(C1)C2 [Compound 240, N-{3-[2-(4-chloro-3-fluorophenoxy)acetamido]bicyclo[1.1.1]pentan-1-yl}-2H-1,3-benzodioxole-4-carboxamide]	1000 to 2000 nM
O=C(COc1ccc(Cl)c(Cl)c1)NC12CC(NC(=O)c3cccnc3)(C1)C2 [Compound 456, N-{3-[2-(3,4-dichlorophenoxy)acetamido]bicyclo[1.1.1]pentan-1-yl}pyridine-3-carboxamide]	50 to 250 nM
O=C(COc1ccc(Cl)c(F)c1)NC12CCC(NC(=O)c3cc(C(F)F)cs3)(CC1)C[C@@H]2O [Compound 665, N-{(3S)-4-[2-(4-chloro-3-fluorophenoxy)acetamido]-3-hydroxybicyclo[2.2.2]octan-1-yl}-4-(difluoromethyl)thiophene-2-carboxamide]	< 50 nM
O=C(COc1ccc(Cl)c(F)c1)NC12CC(NC(=O)c3coc4c3C(=O)CCC4)(C1)C2 [Compound 315, N-{3-[2-(4-chloro-3-fluorophenoxy)acetamido]bicyclo[1.1.1]pentan-1-yl}-4-oxo-4,5,6,7-tetrahydro-1-benzofuran-3-carboxamide]	250 to 1000 nM
O=C(COc1ccc(Cl)c(F)c1)NC12CC(NC(=O)c3ccc(OC(F)F)nc3)(C1)C2 [Compound 440, N-{3-[2-(4-chloro-3-fluorophenoxy)acetamido]bicyclo[1.1.1]pentan-1-yl}-6-(difluoromethoxy)pyridine-3-carboxamide]	50 to 250 nM
CCc1cc(C(=O)NC23CC(NC(=O)COc4ccc5c(c4)OC(F)(F)O5)(C2)C3)n(C)n1 [Compound 399, N-(3-{2-[(2,2-difluoro-2H-1,3-benzodioxol-5-yl)oxy]acetamido}bicyclo[1.1.1]pentan-1-yl)-3-ethyl-1-methyl-1H-pyrazole-5-carboxamide]	250 to 1000 nM
CN(C)c1cccc(C(=O)NC23CC(NC(=O)COc4ccc(Cl)c(F)c4)(C2)C3)c1 [Compound 534, N-{3-[2-(4-chloro-3-fluorophenoxy)acetamido]bicyclo[1.1.1]pentan-1-yl}-3-(dimethylamino)benzamide]	250 to 1000 nM
